pIC50: −log10 of the molar value.
Test system: C3H10T1/2 cells
Assay: C3H assay: differentiation of C3H10T1/2 cells by mSHH, measurement of alkaline phosphatase
Format: cell-based, mouse
Details: Mus musculus, C3H 10T1/2; C3H10T1/2 cells stimulated with mSHH for 72 hours; alkaline phosphatase activity; read-out: IC50 Ranges

SMILES | pIC50
O=C(Oc1ccc(F)cc1)N1CC(S(=O)(=O)N2CCC(c3ccncc3)CC2)C1 [Compound 280, (4-fluorophenyl) 3-(4-pyridin-4-ylpiperidin-1-yl) sulfonylaze-tidine-1-carboxylate] | 5.00 to 6.00
COc1cccc(NC(=O)N2CC(S(=O)(=O)N3CCC(c4ccncc4)CC3)C2)c1 [Compound 281, N-(3-methoxyphenyl)-3-(4-pyridin-4-ylpiperidin-1-yl)sulfonylaze-tidine-1-carboxamide] | 5.00 to 6.00
Cc1ccc(NC(=O)N2CC(S(=O)(=O)N3CCC(c4ccncc4)CC3)C2)cc1 [Compound 282, N-(4-methylphenyl)-3-(4-pyridin-4-ylpiperidin-1-yl)sulfonylaze-tidine-1-carboxamide] | 5.00 to 6.00
CC(C)(C)OC(=O)N1CC(S(=O)(=O)N2CCC(c3nc4ccccc4s3)CC2)C1 [Compound 283, tert-butyl 3-[4-(1,3-benzothiazol-2-yl)piperidin-1-yl]sulfonylaze-tidine-1-carboxylate] | 6.00 to 7.00
Cc1ccc(F)cc1NC(=O)N1CC(S(=O)(=O)N2CCC(c3ccncc3)CC2)C1 [Compound 286, N-(5-fluoro-2-methylphenyl)-3-(4-pyridin-4-ylpiperidin-1-yl)sulfonylaze-tidine-1-carboxamide] | 5.00 to 6.00
O=S(=O)(C1CCC1)N1CCC(c2c[nH]c3ncccc23)CC1 [Compound 287, 3-(1-cyclobutylsulfonylpiperidin-4-yl)-1H-pyrrolo[2,3-b]pyridine] | 5.00 to 6.00
CN(C(=O)[C@H]1C[C@@H](S(=O)(=O)N2CCC(c3c[nH]c4ncccc34)CC2)C1)C(C)(C)C [Compound 289, cis-N-tert-butyl-N-methyl-3-[[4-(1H-pyrrolo[2,3-b]pyridin-3-yl)-1-piperidyl]sulfonyl]cyclobutanecarboxamide] | 7.00 to 8.00
CN(C(=O)[C@H]1C[C@H](S(=O)(=O)N2CCC(c3c[nH]c4ncccc34)CC2)C1)C(C)(C)C [Compound 290, trans-N-tert-butyl-N-methyl-3-[[4-(1H-pyrrolo[2,3-b]pyridin-3-yl)-1-piperidyl]sulfonyl]cyclobutanecarboxamide] | 6.00 to 7.00
O=C(NCCS(=O)(=O)N1CCC(c2ccncc2)CC1)OC1CCCCC1 [Compound 291, cyclohexyl N-[2-(4-pyridin-4-ylpiperidin-1-yl)sulfonylethyl] carbamate] | 5.00 to 6.00
O=C(NC1(C(F)(F)F)CC1)N1CC(S(=O)(=O)N2CCC(c3nc4ccccc4s3)CC2)C1 [Compound 293, 3-[4-(1,3-benzothiazol-2-yl)piperidin-1-yl]sulfonyl-N-[1-(trifluoromethyl)cyclopropyl] azetidine-1-carboxamide] | 7.00 to 8.00
Cc1noc(C)c1NC(=O)[C@H]1C[C@@H](S(=O)(=O)N2CCC(c3ccncc3)CC2)C1 [Compound 295, cis-N-(3,5-dimethyl-1,2-oxazol-4-yl)-3-(4-pyridin-4-ylpiperidin-1-yl) sulfonylcyclobutane-1-carboxamide] | 5.00 to 6.00
O=C(NC1(C(F)(F)F)CC1)[C@H]1C[C@@H](S(=O)(=O)N2CCC(c3c[nH]c4ncccc34)CC2)C1 [Compound 297, cis-3-[4-(1H-pyrrolo[2,3-b]pyridin-3-yl)piperidin-1-yl]sulfonyl-N-[1-(trifluoromethyl)cyclopropyl] cyclobutane-1-carboxamide] | 7.00 to 8.00
CC(C)(C)OC(=O)N1CC(S(=O)(=O)N2CCC(c3nc4ccccc4[nH]3)CC2)C1 [Compound 299, tert-butyl 3-[4-(1H-benzimidazol-2-yl)piperidin-1-yl]sulfonylaze-tidine-1-carboxylate] | 5.00 to 6.00
O=C(NC1(C(F)(F)F)CC1)N1CC(S(=O)(=O)N2CCC(c3nc4ccccc4[nH]3)CC2)C1 [Compound 300, 3-[4-(1H-benzimidazol-2-yl)piperidin-1-yl]sulfonyl-N-[1-(trifluoromethyl)cyclopropyl] azetidine-1-carboxamide] | 5.00 to 6.00
CC(C)(C)OC(=O)N1CC(S(=O)(=O)N2CCC(c3ccccc3)CC2)C1 [Compound 301, tert-butyl 3-(4-phenylpiperidin-1-yl)sulfonylaze-tidine-1-carboxylate] | 6.00 to 7.00
Cc1cc(Cl)ccc1C1CCN(S(=O)(=O)C2CN(C(=O)OC(C)(C)C)C2)CC1 [Compound 302, tert-butyl 3-[4-(4-chloro-2-methylphenyl)piperidin-1-yl]sulfonylaze-tidine-1-carboxylate] | 6.00 to 7.00
CC(C)(C)OC(=O)N1CC(S(=O)(=O)N2CCC(c3ccc(C#N)cc3)CC2)C1 [Compound 303, tert-butyl 3-[4-(4-cyanophenyl)piperidin-1-yl]sulfonylaze-tidine-1-carboxylate] | 6.00 to 7.00
CC(C)(C)OC(=O)N1CC(S(=O)(=O)N2CCC(c3ccc(Cl)cc3)CC2)C1 [Compound 304, tert-butyl 3-[4-(4-chlorophenyl)piperidin-1-yl]sulfonylaze-tidine-1-carboxylate] | 6.00 to 7.00

SMILES | pIC50
CC(C)N(CC(=O)N1CC(S(=O)(=O)N2CCC(c3ccccc3)CC2)C1)C(C)C [Compound 306, 2-[di(propan-2-yl)amino]-1-[3-(4-phenylpiperidin-1-yl)sulfonylaze-tidin-1-yl]ethanone] | 6.00 to 7.00
C[C@@H](C(=O)N1CC(S(=O)(=O)N2CCC(c3ccccc3)CC2)C1)N(C)C [Compound 307, 2-(dimethylamino)-1-[3-(4-phenyl-piperidin-1-yl)sulfonylaze-tidin-1-yl]propan-1-one] | 5.00 to 6.00
Cc1noc(C)c1NC(=O)[C@H]1C[C@@H](S(=O)(=O)N2CCC(c3c[nH]c4ncccc34)CC2)C1 [Compound 309, cis-N-(3,5-dimethyl-1,2-oxazol-4-yl)-3-[4-(1H-pyrrolo [2,3-b]pyridin-3-yl)piperidin-1-yl]sulfonylcycl obutane-1-carboxamide] | 7.00 to 8.00
Cc1noc(C)c1NC(=O)[C@H]1C[C@H](S(=O)(=O)N2CCC(c3c[nH]c4ncccc34)CC2)C1 [Compound 310, trans-N-(3,5-dimethyl-1,2-oxazol-4-yl)-3-[4-(1H-pyrrolo [2,3-b]pyridin-3-yl)piperidin-1-yl]sulfonylcycl obutane-1-carboxamide] | 6.00 to 7.00
O=S(=O)(C1CN(c2nc(-c3ccccc3)cs2)C1)N1CCC(c2c[nH]c3ncccc23)CC1 [Compound 311, 4-phenyl-2-[3-[4-(1H-pyrrolo[2,3-b]pyridin-3-yl)piperidin-1-yl]sulfonylazetidin-1-yl]-1,3-thiazole] | 7.00 to 8.00
O=S(=O)(C1CN(c2nc3ccccc3s2)C1)N1CCC(c2c[nH]c3ncccc23)CC1 [Compound 312, 2-[3-[4-(1H-pyrrolo[2,3-b]pyridin-3-yl)piperidin-1-yl]sulfonylaze-tidin-1-yl]-1,3-benzothiazole] | 7.00 to 8.00
CN1CCC[C@H]1C(=O)N1CC(S(=O)(=O)N2CCC(c3ccccc3)CC2)C1 [Compound 315, [(2S)-1-methyl-pyrrolidin-2-yl]-[3-(4-phenylpiperidin-1-yl)sulfonylaze-tidin-1-yl]methanone] | 5.00 to 6.00
Cc1noc(C)c1C(=O)N1CC(S(=O)(=O)N2CCC(c3ccccc3)CC2)C1 [Compound 316, (3,5-dimethyl-1,2-oxazol-4-yl)-[3-(4-phenylpiperidin-1-yl)sulfonylaze-tidin-1-yl]methanone] | 5.00 to 6.00
Cc1cc(Cl)ccc1C1CCN(S(=O)(=O)C2CN(C(=O)CN(C(C)C)C(C)C)C2)CC1 [Compound 317, 1-[3-[4-(4-chloro-2-methylphenyl)piperidin-1-yl]sulfonylaze-tidin-l-yl]-2-[di(propan-2-yl)amino] ethanone] | 6.00 to 7.00
Cc1cc(Cl)ccc1C1CCN(S(=O)(=O)C2CN(C(=O)[C@@H]3CCCN3C)C2)CC1 [Compound 318, [3-[4-(4-chloro-2-methylphenyl)piperidin-1-yl]sulfonylaze-tidin-1-yl]-[(2S)-1-methylpyrrolidin-2-yl]methanone] | 5.00 to 6.00
O=C(OC1CCOCC1)N1CC(S(=O)(=O)N2CCC(c3ccc(Cl)cc3)CC2)C1 [Compound 320, oxan-4-yl 3-[4-(4-chlorophenyl)piperidin-1-yl]sulfonylaze-tidine-1-carboxylate] | 6.00 to 7.00
CC(C)[C@H](CO)NC(=O)N1CC(S(=O)(=O)N2CCC(c3ccc(Cl)cc3)CC2)C1 [Compound 321, 3-[4-(4-chlorophenyl)piperidin-1-yl]sulfonyl-N-[(2R)-1-hydroxy-3-methylbutan-2-yl]azetidine-1-carboxamide] | 7.00 to 8.00
Cc1noc(C)c1NC(=O)N1CC(S(=O)(=O)N2CCC(c3ccc(Cl)cc3)CC2)C1 [Compound 322, 3-[4-(4-chlorophenyl)piperidin-1-yl]sulfonyl-N-(3,5-dimethyl-1,2-oxazol-4-yl)azetidine-1-carboxamide] | 7.00 to 8.00
CC(C)(C(=O)N1CC(S(=O)(=O)N2CCC(c3c[nH]c4ncccc34)CC2)C1)C(F)(F)F [Compound 323, 3,3,3-trifluoro-2,2-dimethyl-1-[3-[4-(1H-pyrrolo[2,3-b]pyridin-3-yl)piperidin-1-yl]sulfonylaze-tidin-1-yl]propan-1-one] | 7.00 to 8.00
CC(C)N(CC(=O)N1CC(S(=O)(=O)N2CCC(c3ccc(C#N)cc3)CC2)C1)C(C)C [Compound 324, 4-[1-[1-[2-[di(propan-2-yl)amino]acetyl]azetidin-3-yl]sulfonylpiper-idin-4-yl]benzonitrile] | 7.00 to 8.00
CN(C)CC(=O)N1CC(S(=O)(=O)N2CCC(c3c[nH]c4ncccc34)CC2)C1 [Compound 325, 2-(dimethylamino)-1-[3-[4-(1H-pyrrolo[2,3-b]pyridin-3-yl)piperidin-1-yl]sulfonylaze-tidin-1-yl]ethanone] | 5.00 to 6.00
CC(C)N(CC(=O)N1CC(S(=O)(=O)N2CCC(c3c[nH]c4ncccc34)CC2)C1)C(C)C [Compound 326, 2-[di(propan-2-yl)amino]-1-[3-[4-(1H-pyrrolo [2,3-b]pyridin-3-yl)piperidin-1-yl]sulfonylaze-tidin-1-yl]ethanone] | 7.00 to 8.00
CC(C)(C)OC(=O)N1CC(S(=O)(=O)N2CCC(c3ccc(F)cc3)CC2)C1 [Compound 327, tert-butyl 3-[4-(4-fluorophenyl)piperidin-l-yl]sulfonylaze-tidine-1-carboxylate] | 6.00 to 7.00

— US10961238B2, “Modulators of hedgehog (Hh) signaling pathway” (E-THERAPEUTICS PLC, priority 2016, dated 2021)
